Tests used:
[1] = tested on: carbapenem-susceptible A. baumannii isolates (n = 54); test: MIC, broth microdilution (EUCAST), carbapenem-susceptible A. baumannii isolates; format: cell-based, Acinetobacter baumannii; conditions: for MIC: in combinations ETZ fixed at 8 mg/L
Text: (§1) The bacterial strains used in this study comprised 208 clinical isolates from the Spanish National Acinetobacter spp. 2020 Multicenter Collection, which was previously characterized in detail by our research group, including whole-genome sequencing, phylogenetics studies, clonal dynamics, and resistance mechanisms ([2], [29]). Additionally, a collection of A. baumannii ATCC 17978 transformants coding the blaOXA-23, blaOXA-24/40, blaOXA-51, blaOXA-58, blaOXA-143, and blaOXA-201 genes, previously constructed and described by our group ([30]), was used to determine the activity of enmetazobactam against strains carrying the main CHDLs of A. baumannii.
(§2) The antimicrobial susceptibility of the 208 Acinetobacter spp. isolates was assessed using the broth microdilution method, as described in the European Committee on Antimicrobial Susceptibility Testing (EUCAST) v.15 guidelines (http://www.eucast.org/clinical_breakpoints). […] MICs for enmetazobactam alone were assessed as well. […] Subsequently, MIC testing was also conducted with a collection of A. baumannii ATCC 17978 transformants expressing clinically relevant OXA-like carbapenemase genes.
(§3) The A. baumannii ATCC 19606 strain was used as the reference strain in all susceptibility experiments, in duplicate assays. Antibiotics were purchased from Sigma-Aldrich, except enmetazobactam and durlobactam, which were obtained from Advanz Pharma and MedChemExpress, respectively.

[2] = tested on: carbapenem-resistant A. baumannii (CRAB) isolates (n = 67); test: MIC, broth microdilution (EUCAST), carbapenem-resistant A. baumannii isolates; format: cell-based, Acinetobacter baumannii; conditions: ETZ fixed 8 mg/L in combinations; for MIC: Acinetobacter baumannii
Text: as §1, §2, §3

[3] = Acinetobacter baumannii, carbapenem-susceptible A. baumannii isolates (n = 54), ETZ fixed 8 mg/L in combinations
[4] = […], ETZ fixed 8 mg/L in combinations

For `CO/N=C(\C(=O)N[C@@H]1C(=O)N2C(C(=O)[O-])=C(C[N+]3(C)CCCC3)CS[C@H]12)c1csc(N)n1` [cefepime], the “MIC distribution 0.12” value [1] was 0, the MIC ([1]; Acinetobacter baumannii, isolate Ab1, ST 164, ADC-6, OXA-91) was 2 mg/L and the MIC ([1]; Acinetobacter baumannii, isolate Ab11, ST 239, ADC-2, OXA-51) was 2 mg/L. For the same compound, the MIC ([1]; Acinetobacter baumannii, isolate Ab34, ST 2182, ADC-2, OXA-130) was 2 mg/L, the MIC ([1]; Acinetobacter baumannii, isolate Ab38, ST 866, ADC-2, OXA-385) was 8 mg/L and the MIC ([1]; Acinetobacter baumannii, isolate Ab40, ST 2176, ADC-2, OXA-64) was 2 mg/L. It also gave an MIC ([1]; Acinetobacter baumannii, isolate Ab50, ST 2176, ADC-2, OXA-64) of 2 mg/L, an MIC ([1]; Acinetobacter baumannii, isolate Ab57, ST 1470, ADC-58, OXA-106) of 2 mg/L and an MIC ([1]; Acinetobacter baumannii, isolate Ab58, ST 6, ADC-2, OXA-94) of 4 mg/L. For the same compound, the MIC ([1]; Acinetobacter baumannii, isolate Ab61, ST 1639, ADC-7, OXA-64) was 1 mg/L, the MIC ([1]; Acinetobacter baumannii, isolate Ab62, ST 265, ADC-2, OXA-91) was 1 mg/L and the MIC ([1]; Acinetobacter baumannii, isolate Ab67, ST 1, ADC-11, OXA-69) was 2 mg/L. It also gave an MIC ([1]; Acinetobacter baumannii, isolate Ab79, ST 106, ADC-11, OXA-78) of 1 mg/L, an MIC ([1]; Acinetobacter baumannii, isolate Ab80, ST 2182, ADC-6, OXA-208) of 1 mg/L and an MIC ([1]; Acinetobacter baumannii, isolate Ab81, ST 25, ADC-79, OXA-64) of 2 mg/L. It also gave an MIC ([1]; Acinetobacter baumannii, isolate Ab93, ST 25, ADC-79, OXA-64) of 2 mg/L, an MIC ([1]; Acinetobacter baumannii, isolate Ab95, ST 582, ADC-5, OXA-317) of 2 mg/L and an MIC ([1]; Acinetobacter baumannii, isolate Ab96, ST 582, ADC-5, OXA-317) of 1 mg/L. The MIC ([1]; Acinetobacter baumannii, isolate Ab100, ST 145, ADC-58, OXA-343) was 2 mg/L, the MIC ([1]; Acinetobacter baumannii, isolate Ab110, ST 1623, ADC-3, OXA-70) was 8 mg/L and the MIC ([1]; Acinetobacter baumannii, isolate Ab112, ST 193, ADC-like, OXA-120) was 0.5 mg/L. It also gave an MIC ([1]; Acinetobacter baumannii, isolate Ab124, ST 2176, ADC-2, OXA-64) of 1 mg/L, an MIC ([1]; Acinetobacter baumannii, isolate Ab127, ST 2176, ADC-2, OXA-64) of 2 mg/L and an MIC ([1]; Acinetobacter baumannii, isolate Ab128, ST 2176, ADC-2, OXA-64) of 1 mg/L. The MIC ([1]; Acinetobacter baumannii, isolate Ab130, ST 32, ADC-79, OXA-100) was 4 mg/L, the MIC ([1]; Acinetobacter baumannii, isolate Ab131, ST 687, ADC-like, OXA-208) was 0.5 mg/L and the MIC ([1]; Acinetobacter baumannii, isolate Ab132, ST 1112, ADC-79, OXA-89) was 4 mg/L. The MIC ([1]; Acinetobacter baumannii, isolate Ab136, ST 2183, ADC-like, OXA-66) was 2 mg/L, the MIC ([1]; Acinetobacter baumannii, isolate Ab139, ST 54, ADC-like, OXA-365) was 2 mg/L and the MIC ([1]; Acinetobacter baumannii, isolate Ab142, ST 1, ADC-like, OXA-69) was 16 mg/L. The MIC ([1]; Acinetobacter baumannii, isolate Ab143, ST 1328, ADC-76, OXA-408) was 2 mg/L, the MIC ([1]; Acinetobacter baumannii, isolate Ab149, ST 1112, ADC-6, OXA-407) was 2 mg/L and the MIC ([1]; Acinetobacter baumannii, isolate Ab150, ST 2184, ADC-like, OXA-64) was 2 mg/L. The MIC ([1]; Acinetobacter baumannii, isolate Ab152, ST 132, ADC-2, OXA-120) was 2 mg/L, the MIC ([1]; Acinetobacter baumannii, isolate Ab158, ST 2034, ADC-2, OXA-217) was 0.5 mg/L and the MIC ([1]; Acinetobacter baumannii, isolate Ab163, ST 132, ADC-2, OXA-120) was 0.5 mg/L. The MIC ([1]; Acinetobacter baumannii, isolate Ab167, ST 1623, ADC-like, OXA-345) was 1 mg/L, the MIC ([1]; Acinetobacter baumannii, isolate Ab168, ST 1470, ADC-75, OXA-402) was 1 mg/L and the MIC ([1]; Acinetobacter baumannii, isolate Ab170, ST 2110, ADC-4, OXA-338) was 2 mg/L. The MIC ([1]; Acinetobacter baumannii, isolate Ab172, ST 2185, ADC-5, OXA-217) was 1 mg/L, the MIC ([1]; Acinetobacter baumannii, isolate Ab185, ST 2, ADC-26, OXA-66) was 4 mg/L and the MIC ([1]; Acinetobacter baumannii, isolate Ab187, ST 105, ADC-2, OXA-430) was 0.5 mg/L. The MIC ([1]; Acinetobacter baumannii, isolate Ab188, ST 203, ADC-6, OXA-217, PDC-1) was 0.5 mg/L, the MIC ([1]; Acinetobacter baumannii, isolate Ab189, ST 1405, ADC-3, OXA-120) was 1 mg/L and the MIC ([1]; Acinetobacter baumannii, isolate Ab190, ST 2186, ADC-6, OXA-413) was 1 mg/L. For the same compound, the MIC ([1]; Acinetobacter baumannii, isolate Ab193, ST 164, ADC-6, OXA-91) was 1 mg/L, the MIC ([1]; Acinetobacter baumannii, isolate Ab195, ST 1, ADC-11, OXA-69) was 2 mg/L and the MIC ([1]; Acinetobacter baumannii, isolate Ab200, ST 1336, ADC-2, OXA-51) was 2 mg/L. For the same compound, the MIC ([1]; Acinetobacter baumannii, isolate Ab202, ST 1, ADC-11, OXA-69) was 2 mg/L, the MIC ([1]; Acinetobacter baumannii, isolate Ab203, ST 221, ADC-6, OXA-88) was 1 mg/L and the MIC ([1]; Acinetobacter baumannii, isolate Ab206, ST 2187, ADC-58, OXA-69) was 1 mg/L. It also gave an MIC ([1]; Acinetobacter baumannii, isolate Ab209) of 1 mg/L, an MIC ([1]; Acinetobacter baumannii, isolate Ab213) of 1 mg/L and an MIC ([1]; Acinetobacter baumannii, isolate Ab218) of 2 mg/L. The MIC ([1]; Acinetobacter baumannii, isolate Ab220) was 0.5 mg/L, the MIC50 [1, 3] was 4 mg/L and the MIC90 [1, 3] was 8 mg/L. For the same compound, the “MIC distribution 0.25” value [1, 4] was 0, the “MIC distribution 0.5” value [1, 4] was 0 and the “MIC distribution 1” value [1, 4] was 13.0. The “MIC distribution 2” value [1, 4] was 44.4, the “MIC distribution 4” value [1, 4] was 87.0 and the “MIC distribution 8” value [1, 4] was 94.4. The “MIC distribution 16” value [1, 4] was 98.1, the “MIC distribution ≤0.06” value [1, 4] was 0 and the “MIC distribution ≥32” value [1, 4] was 100. The MIC ([2]; isolate Ab56, ST 1, ADC-75, OXA-69, OXA-23) was 32 mg/L, the MIC ([2]; isolate Ab83, ST 25, ADC-5, OXA-64, OXA-23) was 64 mg/L and the MIC ([2]; isolate Ab109, ST 1, ADC-75, OXA-69, OXA-23) was 64 mg/L. For the same compound, the MIC ([2]; isolate Ab133, ST 2, ADC-30, OXA-66, OXA-58, TEM-12) was 32 mg/L, the MIC ([2]; isolate Ab134, ST 2, ADC-30, OXA-66, OXA-58, TEM-12) was 16 mg/L and the MIC ([2]; isolate Ab137, ST 85, ADC-2, OXA-94, OXA-23) was 64 mg/L. For the same compound, the MIC ([2]; isolate Ab138, ST 745, ADC-30, OXA-66, OXA-58) was 32 mg/L, the MIC ([2]; isolate Ab140, ST 85, ADC-2, OXA-94, OXA-23) was 32 mg/L and the MIC ([2]; isolate Ab141, ST 745, ADC-30, OXA-66, OXA-58) was 32 mg/L. The MIC ([2]; isolate Ab144, ST 745, ADC-30, OXA-66, OXA-58) was 32 mg/L, the MIC ([2]; isolate Ab169, ST 2, ADC-30, OXA-66, OXA-23) was 32 mg/L and the MIC ([2]; isolate Ab171, ST 2, ADC-30, OXA-66, OXA-23) was 32 mg/L. For the same compound, the MIC ([2]; isolate Ab173, ST 2, ISAba1-ADC-30, OXA-66, OXA-23) was no less than 128 mg/L, the MIC ([2]; isolate Ab174, ST 2, ADC-30, OXA-66, OXA-23) was 32 mg/L and the MIC ([2]; isolate Ab179, ST 2, ADC-30, OXA-66, OXA-23) was 64 mg/L. For the same compound, the MIC ([2]; isolate Ab180, ST 2, ADC-30, OXA-66, OXA-24/40) was 16 mg/L, the MIC ([2]; isolate Ab181, ST 2, ADC-30, OXA-66, OXA-23) was 32 mg/L and the MIC ([2]; isolate Ab182, ST 2, ADC-30, OXA-66, OXA-23) was 16 mg/L. The MIC ([2]; isolate Ab183, ST 2, ADC-30, OXA-66, OXA-23) was 32 mg/L, the MIC ([2]; isolate Ab184, ST 2, ADC-30, OXA-66, OXA-23) was no less than 128 mg/L and the MIC ([2]; isolate Ab186, ST 2, ADC-30, OXA-66, OXA-23) was 32 mg/L. The MIC ([2]; isolate Ab191, ST 2, ADC-30, OXA-66, OXA-23) was 32 mg/L, the MIC ([2]; isolate Ab192, ST 2, ADC-30, OXA-66, OXA-23) was 32 mg/L and the MIC ([2]; isolate Ab194, ST 2, ADC-30, OXA-66, OXA-23) was 32 mg/L. The MIC ([2]; isolate Ab199, ST 2, ADC-30, OXA-66, OXA-23) was 32 mg/L, the MIC ([2]; isolate Ab201, ST 2, ADC-30, OXA-66, OXA-23) was 64 mg/L and the MIC ([2]; isolate Ab204, ST 2, ADC-30, OXA-66, OXA-23) was 16 mg/L. For the same compound, the “MIC distribution 0.12” value ([2]; cumulative share of CRAB isolates (n = 67) at MIC 0.12 mg/L) was 0, the “MIC distribution 0.25” value ([2]; cumulative share of CRAB isolates (n = 67) at MIC 0.25 mg/L) was 0 and the “MIC distribution 0.5” value ([2]; cumulative share of CRAB isolates (n = 67) at MIC 0.5 mg/L) was 0. The “MIC distribution 1” value ([2]; cumulative share of CRAB isolates (n = 67) at MIC 1 mg/L) was 0, the “MIC distribution 2” value ([2]; cumulative share of CRAB isolates (n = 67) at MIC 2 mg/L) was 0 and the “MIC distribution 4” value ([2]; cumulative share of CRAB isolates (n = 67) at MIC 4 mg/L) was 1.5. The “MIC distribution 8” value ([2]; cumulative share of CRAB isolates (n = 67) at MIC 8 mg/L) was 3.0, the “MIC distribution 16” value ([2]; cumulative share of CRAB isolates (n = 67) at MIC 16 mg/L) was 22.4 and the “MIC distribution 32” value ([2]; cumulative share of CRAB isolates (n = 67) at MIC 32 mg/L) was 70.1. For the same compound, the “MIC distribution 64” value ([2]; cumulative share of CRAB isolates (n = 67) at MIC 64 mg/L) was 97.0.

From PMC12888861, “Antibacterial activity of enmetazobactam against Acinetobacter spp.: a molecular dissection of mechanism of action and resistance determinants” (Antimicrobial Agents and Chemotherapy, 2025)
